Test results: ChEMBL document CHEMBL1201862, “PubChem BioAssay data set” (2004)
Calls of active or inactive are those of the source.

What was measured:
[1] = biological target: T1, Serine/threonine-protein phosphatase (Homo sapiens, UniProt Q9BPW0); test: Counterscreen for inhibitors of PP1: fluorescence-based biochemical high throughput dose response assay to identify inhibitors of Protein Phosphatase 5 (PP5). [Related pubchem assays: 2034 (Summary (PP5 inhibitors)), 1987 (PP5 inhibitors in singlate), 2235 (PP1 inhibitors in singlate)]
T1 sequence (Q9BPW0 whole entry): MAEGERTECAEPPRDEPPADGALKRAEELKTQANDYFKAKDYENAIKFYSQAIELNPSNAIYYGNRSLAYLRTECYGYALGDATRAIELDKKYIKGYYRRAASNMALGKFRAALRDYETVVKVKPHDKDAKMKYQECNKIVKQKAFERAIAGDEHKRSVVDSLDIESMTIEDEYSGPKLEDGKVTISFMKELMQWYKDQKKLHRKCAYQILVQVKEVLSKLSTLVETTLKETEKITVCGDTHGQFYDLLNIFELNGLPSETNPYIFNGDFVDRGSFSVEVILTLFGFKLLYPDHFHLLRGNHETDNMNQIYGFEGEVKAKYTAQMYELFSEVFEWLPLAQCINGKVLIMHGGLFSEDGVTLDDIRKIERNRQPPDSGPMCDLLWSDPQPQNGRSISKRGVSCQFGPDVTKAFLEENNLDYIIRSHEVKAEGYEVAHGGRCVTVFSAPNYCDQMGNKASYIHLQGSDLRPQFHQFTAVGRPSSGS

[2] = biological target: Peroxisome proliferator-activated receptor gamma/Nuclear receptor corepressor 2 (Homo sapiens, UniProt P37231+Q9Y618); test: Counterscreen for NR2E3 inverse agonists: TR-FRET-based biochemical high throughput dose response assay to identify inverse agonists of the interaction between peroxisome proliferator-activated receptor gamma (PPARg) and nuclear receptor co-repressor 2 (NCOR2).; type: functional
[3] = biological target: Eukaryotic translation initiation factor 4E (Mus musculus, UniProt P63073); test: eIF4E–eIF4G protein interaction inhibitors, dose response, biochemical, TR-FRET (AID 855); type: functional;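 further: potency for disrupting eIF4E binding to eIF4GI seen as loss of FRET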
Eukaryotic translation initiation factor 4E, sequence (P63073 whole entry): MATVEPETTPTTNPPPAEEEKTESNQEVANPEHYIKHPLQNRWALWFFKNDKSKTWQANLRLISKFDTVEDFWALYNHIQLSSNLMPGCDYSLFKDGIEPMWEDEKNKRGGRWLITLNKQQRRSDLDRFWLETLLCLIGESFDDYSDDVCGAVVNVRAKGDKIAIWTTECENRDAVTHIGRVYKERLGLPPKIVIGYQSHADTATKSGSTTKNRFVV

[4] = biological target: Photoreceptor-specific nuclear receptor (Homo sapiens, UniProt Q9Y5X4); test: NR2E3 inverse agonists, dose response, biochemical, TR-FRET (AID 463256); type: functional
[5] = biological target: Serine/threonine-protein phosphatase PP1-alpha catalytic subunit (Homo sapiens, UniProt P62136); test: PP1 phosphatase inhibitors, dose response, biochemical, fluorescence (AID 2403);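 further: phosphatase turnover of OMFP into fluorescent 3-O-methylfluorescein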
[6] = biological target: Hexokinase HKDC1 (Homo sapiens, UniProt Q2TB90); test: HKDC1 hexokinase inhibitors, dose response, biochemical, W721R variant (AID 504729); type: functional
Hexokinase HKDC1, sequence (Q2TB90 whole entry): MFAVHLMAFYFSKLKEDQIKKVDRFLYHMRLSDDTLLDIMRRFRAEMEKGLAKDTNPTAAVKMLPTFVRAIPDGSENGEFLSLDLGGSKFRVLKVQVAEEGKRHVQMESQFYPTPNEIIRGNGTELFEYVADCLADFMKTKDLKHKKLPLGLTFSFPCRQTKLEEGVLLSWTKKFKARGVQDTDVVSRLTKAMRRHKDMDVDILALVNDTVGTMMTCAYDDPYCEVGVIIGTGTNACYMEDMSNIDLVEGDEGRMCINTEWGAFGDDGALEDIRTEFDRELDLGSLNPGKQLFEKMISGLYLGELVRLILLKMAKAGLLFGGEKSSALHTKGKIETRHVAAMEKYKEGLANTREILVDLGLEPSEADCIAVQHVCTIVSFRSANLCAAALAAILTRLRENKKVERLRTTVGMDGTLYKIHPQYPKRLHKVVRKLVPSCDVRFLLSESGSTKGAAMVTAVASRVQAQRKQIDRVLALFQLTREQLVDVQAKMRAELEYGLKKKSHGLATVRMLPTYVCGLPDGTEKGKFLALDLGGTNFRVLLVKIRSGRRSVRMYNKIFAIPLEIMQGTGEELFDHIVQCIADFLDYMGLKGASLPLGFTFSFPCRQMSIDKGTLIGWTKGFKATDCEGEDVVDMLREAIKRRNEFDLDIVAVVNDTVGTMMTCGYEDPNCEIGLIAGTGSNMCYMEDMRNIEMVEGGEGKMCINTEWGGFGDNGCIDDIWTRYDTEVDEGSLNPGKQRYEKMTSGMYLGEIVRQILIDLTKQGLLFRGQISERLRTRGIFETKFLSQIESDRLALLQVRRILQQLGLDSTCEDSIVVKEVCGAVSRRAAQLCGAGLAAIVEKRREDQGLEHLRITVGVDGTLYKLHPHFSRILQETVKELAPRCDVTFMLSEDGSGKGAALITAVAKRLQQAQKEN

[7] = biological target: Bcl-2-like protein 10 (Homo sapiens, UniProt Q9HD36); test: displacers of TR3 peptide from Bcl-B, primary screen, selectivity assay for Bfl-1 inhibitor project, biochemical, fluorescence polarization, FITC-TR3 peptide (AID 748);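 further: fluorescence polarization from a fluorescein-labelled TR3 peptide binding purified Bcl-B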
Bcl-2-like protein 10, sequence (Q9HD36 whole entry): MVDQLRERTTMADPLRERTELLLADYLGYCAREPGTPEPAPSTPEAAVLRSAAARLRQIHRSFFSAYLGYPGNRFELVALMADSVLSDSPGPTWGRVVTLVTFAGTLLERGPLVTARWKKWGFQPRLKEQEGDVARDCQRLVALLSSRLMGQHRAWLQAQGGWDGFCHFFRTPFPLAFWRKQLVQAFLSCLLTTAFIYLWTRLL

[8] = biological target: T2, Calpain-2 catalytic subunit (Sus scrofa, UniProt P43367); test: pig calpain II inhibitor potency, dose response, biochemical, fluorogenic peptide substrate (AID 1420); type: functional
T2 sequence (P43367 whole entry): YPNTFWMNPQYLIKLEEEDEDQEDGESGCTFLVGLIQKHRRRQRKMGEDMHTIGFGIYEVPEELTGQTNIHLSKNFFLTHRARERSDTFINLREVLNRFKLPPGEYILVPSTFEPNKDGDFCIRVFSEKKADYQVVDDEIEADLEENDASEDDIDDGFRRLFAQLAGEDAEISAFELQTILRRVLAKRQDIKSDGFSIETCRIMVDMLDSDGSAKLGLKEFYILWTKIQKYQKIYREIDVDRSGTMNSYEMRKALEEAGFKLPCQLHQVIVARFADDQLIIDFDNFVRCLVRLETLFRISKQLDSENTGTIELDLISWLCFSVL

[9] = biological target: Induced myeloid leukemia cell differentiation protein Mcl-1 (Homo sapiens, UniProt Q07820); type: functional
[10] = biological target: T3, Voltage-gated N-type calcium channel alpha-1B subunit/Amyloid beta A4 precursor protein-binding family A member 1 (Homo sapiens, UniProt Q00975+Q02410); test: disruptors of Mint-PDZ/N-type channel peptide interaction – biochemical, HTRF, SAR follow-up (AID 2489); type: functional
T3 sequence (Q00975 whole entry): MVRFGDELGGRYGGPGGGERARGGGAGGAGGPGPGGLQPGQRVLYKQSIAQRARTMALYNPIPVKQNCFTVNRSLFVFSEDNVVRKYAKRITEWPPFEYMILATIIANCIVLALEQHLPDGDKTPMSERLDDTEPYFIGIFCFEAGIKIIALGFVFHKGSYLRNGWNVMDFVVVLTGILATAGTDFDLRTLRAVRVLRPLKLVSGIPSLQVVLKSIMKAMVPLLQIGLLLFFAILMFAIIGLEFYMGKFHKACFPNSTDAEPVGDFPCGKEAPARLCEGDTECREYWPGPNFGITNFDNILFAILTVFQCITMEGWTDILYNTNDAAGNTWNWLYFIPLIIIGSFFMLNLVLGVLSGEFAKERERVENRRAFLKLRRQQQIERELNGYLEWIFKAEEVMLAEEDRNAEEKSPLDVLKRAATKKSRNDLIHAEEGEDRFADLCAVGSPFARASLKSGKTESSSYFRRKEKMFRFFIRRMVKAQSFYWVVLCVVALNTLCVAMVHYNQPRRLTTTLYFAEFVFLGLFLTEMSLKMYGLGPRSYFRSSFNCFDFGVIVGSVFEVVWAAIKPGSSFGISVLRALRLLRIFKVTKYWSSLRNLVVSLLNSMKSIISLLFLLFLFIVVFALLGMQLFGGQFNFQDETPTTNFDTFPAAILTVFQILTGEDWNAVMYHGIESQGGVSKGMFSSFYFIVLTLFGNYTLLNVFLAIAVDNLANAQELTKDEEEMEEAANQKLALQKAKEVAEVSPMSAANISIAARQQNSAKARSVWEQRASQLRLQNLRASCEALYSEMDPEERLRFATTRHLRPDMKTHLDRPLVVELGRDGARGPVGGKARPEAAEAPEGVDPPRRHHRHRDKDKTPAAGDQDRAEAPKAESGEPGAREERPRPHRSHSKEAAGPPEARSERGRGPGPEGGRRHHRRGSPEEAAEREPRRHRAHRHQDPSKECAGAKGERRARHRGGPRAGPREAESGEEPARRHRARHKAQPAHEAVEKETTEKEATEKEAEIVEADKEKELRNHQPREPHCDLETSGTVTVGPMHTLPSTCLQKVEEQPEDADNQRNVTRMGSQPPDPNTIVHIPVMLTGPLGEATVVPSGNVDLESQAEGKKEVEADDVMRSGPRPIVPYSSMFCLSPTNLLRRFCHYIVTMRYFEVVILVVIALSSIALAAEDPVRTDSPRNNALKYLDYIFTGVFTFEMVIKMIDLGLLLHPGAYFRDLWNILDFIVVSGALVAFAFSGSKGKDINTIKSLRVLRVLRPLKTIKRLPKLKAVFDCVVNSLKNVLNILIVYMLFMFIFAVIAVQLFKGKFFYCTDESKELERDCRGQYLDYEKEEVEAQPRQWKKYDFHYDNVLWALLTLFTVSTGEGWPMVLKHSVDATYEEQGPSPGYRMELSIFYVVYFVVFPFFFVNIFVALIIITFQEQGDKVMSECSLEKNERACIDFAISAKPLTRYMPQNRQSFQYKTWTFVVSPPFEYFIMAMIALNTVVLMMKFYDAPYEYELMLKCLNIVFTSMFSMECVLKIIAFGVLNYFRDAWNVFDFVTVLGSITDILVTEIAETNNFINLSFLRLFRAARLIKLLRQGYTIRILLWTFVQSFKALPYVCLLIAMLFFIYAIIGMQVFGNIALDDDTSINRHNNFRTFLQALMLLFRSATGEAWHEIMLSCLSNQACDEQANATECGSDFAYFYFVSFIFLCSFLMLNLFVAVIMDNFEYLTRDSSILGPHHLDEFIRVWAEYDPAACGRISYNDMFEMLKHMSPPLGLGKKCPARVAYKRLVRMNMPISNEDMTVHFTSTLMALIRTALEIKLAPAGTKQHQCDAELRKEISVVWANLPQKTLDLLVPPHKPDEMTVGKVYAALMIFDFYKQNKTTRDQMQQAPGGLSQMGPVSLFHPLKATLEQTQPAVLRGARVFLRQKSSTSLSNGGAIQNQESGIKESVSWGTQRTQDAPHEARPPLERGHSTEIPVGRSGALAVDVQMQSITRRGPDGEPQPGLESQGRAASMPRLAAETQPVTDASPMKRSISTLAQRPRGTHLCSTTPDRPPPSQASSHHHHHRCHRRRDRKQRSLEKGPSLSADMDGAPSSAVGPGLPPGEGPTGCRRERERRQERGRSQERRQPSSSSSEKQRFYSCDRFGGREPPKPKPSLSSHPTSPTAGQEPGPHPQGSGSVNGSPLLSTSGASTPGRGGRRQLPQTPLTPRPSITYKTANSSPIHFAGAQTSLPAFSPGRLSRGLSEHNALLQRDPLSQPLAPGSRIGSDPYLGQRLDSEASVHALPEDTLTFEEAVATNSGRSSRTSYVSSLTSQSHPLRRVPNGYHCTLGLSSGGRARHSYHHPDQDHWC
T3 sequence (Q02410 whole entry): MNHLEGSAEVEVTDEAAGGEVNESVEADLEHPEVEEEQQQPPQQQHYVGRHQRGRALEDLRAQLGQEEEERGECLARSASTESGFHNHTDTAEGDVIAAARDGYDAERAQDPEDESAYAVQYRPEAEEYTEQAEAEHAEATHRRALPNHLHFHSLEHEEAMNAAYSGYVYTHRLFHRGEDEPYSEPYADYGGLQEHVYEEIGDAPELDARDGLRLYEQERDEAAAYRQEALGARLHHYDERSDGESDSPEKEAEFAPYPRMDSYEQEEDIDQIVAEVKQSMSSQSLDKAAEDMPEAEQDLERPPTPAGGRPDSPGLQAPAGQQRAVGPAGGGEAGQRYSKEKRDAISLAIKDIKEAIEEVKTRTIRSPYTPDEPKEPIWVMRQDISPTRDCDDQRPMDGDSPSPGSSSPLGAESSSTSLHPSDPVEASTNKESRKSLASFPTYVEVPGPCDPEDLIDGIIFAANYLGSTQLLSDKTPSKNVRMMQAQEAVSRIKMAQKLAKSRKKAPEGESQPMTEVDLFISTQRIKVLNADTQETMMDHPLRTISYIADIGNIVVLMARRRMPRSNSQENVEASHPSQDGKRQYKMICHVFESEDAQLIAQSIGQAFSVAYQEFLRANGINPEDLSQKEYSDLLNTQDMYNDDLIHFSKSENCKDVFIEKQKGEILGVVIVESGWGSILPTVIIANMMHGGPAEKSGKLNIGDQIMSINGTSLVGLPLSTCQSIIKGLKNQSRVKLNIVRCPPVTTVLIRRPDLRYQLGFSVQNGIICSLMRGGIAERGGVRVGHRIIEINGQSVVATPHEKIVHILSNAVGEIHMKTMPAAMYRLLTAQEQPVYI

[11] = biological target: T3, Voltage-gated N-type calcium channel alpha-1B subunit/Amyloid beta A4 precursor protein-binding family A member 1; type: protein assay
[12] = biological target: T3, Voltage-gated N-type calcium channel alpha-1B subunit/Amyloid beta A4 precursor protein-binding family A member 1; test: disruptors of Mint-PDZ/N-type channel peptide interaction – biochemical, HTRF, set 2, SAR follow-up (AID 434980); type: functional
[13] = biological target: Genome polyprotein (Hepatitis C virus, UniProt Q2Q167); test: HCV core protein dimerization inhibitors, dose response, biochemical, TR-FRET (AID 2159); parameters: species or system Hepacivirus hominis;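 further: blocks dimerization of HCV core protein measured by TR-FRET between tagged core106 pairs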
Genome polyprotein, sequence (Q2Q167 whole entry): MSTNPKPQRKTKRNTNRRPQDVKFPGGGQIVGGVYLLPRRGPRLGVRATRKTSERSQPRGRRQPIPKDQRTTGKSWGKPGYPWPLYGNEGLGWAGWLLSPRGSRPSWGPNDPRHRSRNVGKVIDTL

[14] = biological target: T4, Probable nicotinate-nucleotide adenylyltransferase (Staphylococcus aureus (strain N315), UniProt P65502); type: functional, Staphylococcus aureus subsp. aureus N315;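 on IC50 Mean: confirmatory dose-response retesting of NadD inhibitor hits first found in an ultra-high-throughput screen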
T4 sequence (P65502 whole entry): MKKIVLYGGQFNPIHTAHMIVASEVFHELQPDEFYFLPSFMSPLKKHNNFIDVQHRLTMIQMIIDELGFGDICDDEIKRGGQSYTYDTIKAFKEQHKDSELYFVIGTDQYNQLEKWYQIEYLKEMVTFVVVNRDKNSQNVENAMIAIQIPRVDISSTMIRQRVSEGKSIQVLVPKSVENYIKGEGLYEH

[15] = biological target: T4, Probable nicotinate-nucleotide adenylyltransferase; type: functional, Staphylococcus aureus subsp. aureus N315; settings: read-out: IC50_Mean
[16] = biological target: SUMO E1/E2 (Homo sapiens, UniProt P63279+Q9UBE0+Q9UBT2); test: SAR analysis of SUMOylation using HTRF in an in-Vitro dose response assay. [Related pubchem assays (depositor defined):AID2006, AID2011, AID2018, AID2069, AID2658]; type: functional
[17] = biological target: T3, Voltage-gated N-type calcium channel alpha-1B subunit/Amyloid beta A4 precursor protein-binding family A member 1; type: protein assay; remark: listed apart in the source
[18] = biological target: Dual specificity protein phosphatase 3 (Homo sapiens, UniProt P51452); test: VHR1 inhibitor Ki determination, SAR follow-up, biochemical, colorimetric (AID 2004)
Dual specificity protein phosphatase 3, sequence (P51452 whole entry): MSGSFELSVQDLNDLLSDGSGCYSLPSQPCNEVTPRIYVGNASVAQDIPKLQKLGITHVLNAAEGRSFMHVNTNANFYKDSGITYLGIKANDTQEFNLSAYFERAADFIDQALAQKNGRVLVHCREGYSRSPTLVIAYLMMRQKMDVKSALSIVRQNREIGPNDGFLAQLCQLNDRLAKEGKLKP

[19] = biological target: T5, Caspase-3 (Homo sapiens, UniProt P42574); test: procaspase-3 activation potency of dual hits, dose response, counter-screen for dual procaspase-3/7 activator project, biochemical, absorbance, PC-3 D3A mutant (AID 504328)
T5 sequence (P42574 whole entry): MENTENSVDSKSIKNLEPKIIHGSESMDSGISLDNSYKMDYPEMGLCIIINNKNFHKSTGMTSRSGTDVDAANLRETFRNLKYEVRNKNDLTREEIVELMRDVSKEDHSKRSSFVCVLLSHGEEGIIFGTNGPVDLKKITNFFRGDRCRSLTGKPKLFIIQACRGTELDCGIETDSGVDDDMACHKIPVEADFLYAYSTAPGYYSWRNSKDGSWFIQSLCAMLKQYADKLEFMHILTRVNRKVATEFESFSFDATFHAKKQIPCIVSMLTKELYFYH

[20] = biological target: Caspase-7 (Homo sapiens, UniProt P55210); test: procaspase-7 activators, dose response, dual procaspase-3/-7 activator project, biochemical, absorbance, human (AID 504330)

For `N#Cc1ccc(CSc2nnc(NC(=O)c3ccc4ncsc4c3)s2)cc1`, which IC50 [1] is on record?
Its IC50 is > 67 µM (not active).

And the IC50 [2]?
Its IC50 is 3.79 µM (active).

And the IC50 [3]?
Its IC50 is 13.1 µM (active).

And the IC50 [4]?
Its IC50 is 3.91 µM (active).

And the IC50 [5]?
Its IC50 is 7.42 µM (active).

And the IC50 [6]?
Its IC50 is 10.4 µM (active).

For `CCN(CC)CCc1c(C)[nH]c(C(=O)OCc2ccccc2)c1C`, which IC50 [7] is on record?
Its IC50 is 41.8 µM (active).

What about the IC50 [8] of the same molecule?
Its IC50 is 14.4 µM (not active).

How did the IC50 [9] turn out when `COc1ccc(NC(=O)c2cc(-c3ccco3)nc3ccccc23)cc1S(=O)(=O)N1CCOCC1` was run?
Its IC50 is 2.29 µM (active).

What about the IC50 [10] of the same molecule?
The IC50 was 15 µM (active).

What about the IC50 [11] of the same molecule?
Its IC50 is 3.76 µM (active).

And the IC50 [12]?
The IC50 was 17.7 µM (active).

And the IC50 [13]?
Its IC50 is > 49.8 µM (not active).

What about the IC50 [14] of the same molecule?
The IC50 was 8.76 µM (active).

What about the IC50 [15] of the same molecule?
Its IC50 is 28.1 µM (active).

And the IC50 [16]?
Its IC50 is 19.4 µM (active).

What about the IC50 [17] of the same molecule?
The IC50 was 2.59 µM (active).

Which Ki [18] does the source give for `O=Cc1ccc(Oc2ncnc3ccccc23)cc1` here?
The Ki was 43.7 µM (inactive).

Which EC50 [19] does the source give for `COc1ccc(-c2cc(C(=O)OC3CCOC3=O)c3ccccc3n2)cc1` (stereo not given) here?
Its EC50 is > 85.3 µM (inactive).

What about the EC50 [20] of the same molecule?
The EC50 was > 85.3 µM (inactive).
